Experimental data as given in patent US12421489B2, “Biological control of plant pathogenic microorganisms” (priority 2016, dated 2025).

What was measured:
[1] = system: Botrytis spp.; test: Cherry inoculation assays 2 and 4: Botrytis spp. fruit rot of ‘Sweet Valentine’ cherries, dip treatment; assay type: in vivo; details: Assay 2, cherries, cumulative after 13 days; nil 35%; not significantly reduced (P>0.05)
Method: Fruit-based screening assays were conducted in laboratories at the Plant and Food Research Ruakura Research Centre, Hamilton, New Zealand (PFR). PFR assays focused on dip treatment application of YBCA5 and fungicide controls.
Fruit for Monilinia fructicola and Botrytis spp. inoculation assays were carried out on sweet cherries (Prunus avium ‘Sweet Valentine’) that were picked at the harvest mature stage and sourced from the PFR Clyde Research Orchard in Central Otago on 8 Jan. 2016 for fruit based assays 1 and 2. A second harvest was carried out on 13 Jan. 2016 for fruit based assays 3 and 4.
Each cherry was then subjected to a double wash process. Wash one consisted of 10 minutes in tap water on a rotary shaker (110 rpm) followed by a five minute wash in SDW (Wash 2). […]
A Botrytis spp. culture (isolate code 09-2), which had been originally isolated from an infected kiwifruit located in the Bay of Plenty region during the 2000s, was used for the spray inoculation assays included in this section carried out on cherries. […] This stock suspension was then filtered using a 70 μm cell strainer (70 μm mesh) to remove mycelial fragments, the concentration determined using a haemocytometer and then adjusted, by dilution with SDW+Tw 80 (0.01% v/v) to a final concentration of 1×10^5 conidia/mL. […]

[2] = system: postharvest kiwifruit fruit pathogens; test: Assays 8 and 9 overall: wound protection of ‘Hongyang’ kiwifruit (discussion); assay type: in vivo; details: wounded ‘Hongyang’ kiwifruit, treatment 24 hours before pathogen
Method: The kiwifruit ‘Hongyang’-based screening assays (assays 8 and 9) were conducted in laboratories at the Plant and Food Research Ruakura Research Centre, Hamilton, New Zealand (PFR). PFR assays focused on wound application of YBCA5 treatment, a commercial biological control treatment and a fungicide were used as comparative controls.
Just prior to wound treatment, each fruit was wounded on the side with a sterile stainless steel spike (4 mm deep×3 mm wide) and 10 μl of each treatment suspension was pipetted into the wound and allowed to dry.
For assays 8 and 9, two sterile paper towels were placed beneath Plix cut-outs, moistened with 40 mL SDW and each fruit placed in disposable lunch boxes (Plix Extra Deep 45/45, containing five Plix fruit cut-outs to prevent fruit from moving), sealed, then placed into large (40 L) plastic bins which were closed to ensure high relative humidity for the first 24 h and incubated on the lab bench at 24° C. […] After 6 days, (Alternaria spp. Botrytis spp., Penicillium spp., Phomopsis spp., Colletotrichum spp.) and 7 days (Cryptosporiopsis spp.), the severity of fungal rot was assessed for each treatment by measuring the lesion length (mm) along the axis of the fruit. Data were expressed as the average lesion length, minus the initial width of the wound (3 mm). […]

Question: For `CC(C)NC(=O)N1CC(=O)N(c2cc(Cl)cc(Cl)c2)C1=O` [iprodione], which “incidence of Botrytis spp. fruit rot” value [1] is on record?
Answer: 22%

Question: And the “overall performance as wound protectant” value [2]?
Answer: performed poorly
